From patent US6747164B2, “Use of amine compounds with improved biodegradability as adjuvants for pesticides and fertilizers” (priority 2000, dated 2004)
Where “and” joins values, the source holds several entries; their conditions need not be identical. Equal entries are not always repeated.

Legend:
Format in all cases: in vivo
Brassica napus = experiment: Greenhouse test of glyphosate/adjuvant formulations with Brassica napus
Lolium rigidum = experiment: Greenhouse test of glyphosate/adjuvant formulations with Lolium rigidum
Elymus repens = experiment: Greenhouse test of glyphosate/adjuvant formulations with Elymus repens
[1] = Example 2, Table 4, glyphosate 0.75 kg a.e./ha, glyphosate/adjuvant 2:1, 4 weeks after spraying

**Q.** CCCCCCOC1OC(CO)C(O)C(O)C1O (centres unmarked) [Hexyl glucoside, reference compound] was tested. Which Effect (Brassica napus; [1]) did it give?
**A.** Its Effect is 57%.

**Q.** For CCCCC(CC)COC1OC(CO)C(O)C(O)C1O (centres unmarked) [2-ethylhexyl glucoside, reference compound], which Effect (Brassica napus; [1]) is on record?
**A.** The Effect was 63%.

**Q.** What does the source list for “Monoester between polyethyleneglycol (4.5 EO)-monococo ether monocarboxymethyl ether and triethanolamine”?
**A.** Effect (Brassica napus; in vivo): 58% and 75% and 92%; Effect (Lolium rigidum; in vivo): 52% and 72% and 96%

**Q.** “Monoester between polyethyleneglycol (2.5 EO)-monococo ether monocarboxymethyl ether and triethanolamine” was tested. Which Effect (Lolium rigidum; in vivo) did it give?
**A.** The Effect was 48% and 68% and 88%.

**Q.** With “Cocoamide of N,N-bishydroxyethyl-1,3-propylenediamine” as the molecule, how does the Effect (Elymus repens; Example 2, Table 3, glyphosate 0.15 kg a.e./ha, glyphosate/adjuvant 2:1, 5 weeks after spraying, 100% = totally dead plant) read?
**A.** Its Effect is 13%.

**Q.** And the Effect (Elymus repens; Example 2, Table 3, glyphosate 0.15 kg a.e./ha, glyphosate/adjuvant 5:1, 5 weeks after spraying)?
**A.** The Effect was 8%.

**Q.** And the Effect (Elymus repens; Example 2, Table 3, glyphosate 0.25 kg a.e./ha, glyphosate/adjuvant 2:1, 5 weeks after spraying)?
**A.** The Effect was 75%.

**Q.** What about the Effect (Elymus repens; Example 2, Table 3, glyphosate 0.25 kg a.e./ha, glyphosate/adjuvant 5:1, 5 weeks after spraying) of the same molecule?
**A.** Its Effect is 65%.

**Q.** What about the Effect (Elymus repens; Example 2, Table 3, glyphosate 0.75 kg a.e./ha, glyphosate/adjuvant 2:1, 5 weeks after spraying) of the same molecule?
**A.** The Effect was 97%.

**Q.** What about the Effect (Elymus repens; Example 2, Table 3, glyphosate 0.75 kg a.e./ha, glyphosate/adjuvant 5:1, 5 weeks after spraying) of the same molecule?
**A.** Its Effect is 95%.

**Q.** What about the Effect (Elymus repens; Example 3, Table 6, glyphosate 0.15 kg a.e./ha, glyphosate/adjuvant 2:1, 7 weeks after spraying) of the same molecule?
**A.** The Effect was 33%.

**Q.** And the Effect (Elymus repens; Example 3, Table 6, glyphosate 0.25 kg a.e./ha, glyphosate/adjuvant 2:1, 7 weeks after spraying)?
**A.** The Effect was 47%.

**Q.** What about the Effect (Elymus repens; Example 3, Table 6, glyphosate 0.75 kg a.e./ha, glyphosate/adjuvant 2:1, 7 weeks after spraying) of the same molecule?
**A.** Its Effect is 100%.

**Q.** And the Effect (Brassica napus; Example 2, Table 4, glyphosate 0.15 kg a.e./ha, glyphosate/adjuvant 2:1, 4 weeks after spraying)?
**A.** Its Effect is 40%.

**Q.** What about the Effect (Brassica napus; Example 2, Table 4, glyphosate 0.15 kg a.e./ha, glyphosate/adjuvant 5:1, 4 weeks after spraying) of the same molecule?
**A.** Its Effect is 8%.

**Q.** What about the Effect (Brassica napus; Example 2, Table 4, glyphosate 0.25 kg a.e./ha, glyphosate/adjuvant 2:1, 4 weeks after spraying) of the same molecule?
**A.** Its Effect is 70%.

**Q.** And the Effect (Brassica napus; Example 2, Table 4, glyphosate 0.25 kg a.e./ha, glyphosate/adjuvant 5:1, 4 weeks after spraying)?
**A.** Its Effect is 73%.

**Q.** And the Effect (Brassica napus; [1])?
**A.** The Effect was 98%.

**Q.** What about the Effect (Brassica napus; Example 2, Table 4, glyphosate 0.75 kg a.e./ha, glyphosate/adjuvant 5:1, 4 weeks after spraying) of the same molecule?
**A.** Its Effect is 87%.

**Q.** And the Effect (Brassica napus; Example 3, Table 7, glyphosate 0.15 kg a.e./ha, glyphosate/adjuvant 2:1, 4 weeks after spraying)?
**A.** The Effect was 45%.

**Q.** What about the Effect (Brassica napus; Example 3, Table 7, glyphosate 0.25 kg a.e./ha, glyphosate/adjuvant 2:1, 4 weeks after spraying) of the same molecule?
**A.** Its Effect is 52%.

**Q.** What about the Effect (Brassica napus; Example 3, Table 7, glyphosate 0.75 kg a.e./ha, glyphosate/adjuvant 2:1, 4 weeks after spraying) of the same molecule?
**A.** The Effect was 90%.

**Q.** And the Effect (Lolium rigidum; Example 2, Table 5, glyphosate 0.08 kg a.e./ha, glyphosate/adjuvant 2:1, 4 weeks after spraying)?
**A.** The Effect was 57%.

**Q.** And the Effect (Lolium rigidum; Example 2, Table 5, glyphosate 0.08 kg a.e./ha, glyphosate/adjuvant 5:1, 4 weeks after spraying)?
**A.** Its Effect is 23%.

**Q.** And the Effect (Lolium rigidum; Example 2, Table 5, glyphosate 0.15 kg a.e./ha, glyphosate/adjuvant 2:1, 4 weeks after spraying)?
**A.** The Effect was 78%.

**Q.** What about the Effect (Lolium rigidum; Example 2, Table 5, glyphosate 0.15 kg a.e./ha, glyphosate/adjuvant 5:1, 4 weeks after spraying) of the same molecule?
**A.** The Effect was 72%.

**Q.** And the Effect (Lolium rigidum; Example 2, Table 5, glyphosate 0.25 kg a.e./ha, glyphosate/adjuvant 2:1, 4 weeks after spraying)?
**A.** The Effect was 97%.

**Q.** What about the Effect (Lolium rigidum; Example 2, Table 5, glyphosate 0.25 kg a.e./ha, glyphosate/adjuvant 5:1, 4 weeks after spraying) of the same molecule?
**A.** Its Effect is 88%.

**Q.** What about the Effect (Lolium rigidum; Example 3, Table 8, glyphosate 0.08 kg a.e./ha, glyphosate/adjuvant 2:1, 4 weeks after spraying) of the same molecule?
**A.** Its Effect is 40%.

**Q.** And the Effect (Lolium rigidum; Example 3, Table 8, glyphosate 0.15 kg a.e./ha, glyphosate/adjuvant 2:1, 4 weeks after spraying)?
**A.** Its Effect is 58%.

**Q.** And the Effect (Lolium rigidum; Example 3, Table 8, glyphosate 0.25 kg a.e./ha, glyphosate/adjuvant 2:1, 4 weeks after spraying)?
**A.** The Effect was 93%.
